# Results published in patent publication US20190209472A1, “FORMULATIONS FOR DERMAL DELIVERY OF POLYMER CONJUGATES OF INDOLOCARBAZOLE COMPOUNDS WITH REDUCED EXPOSURE” (Sienna Biopharmaceuticals, Inc., priority 2017, published 2019).
# Where two headings read alike, the source gives them in different places.
# Tested on: lesions of psoriasis vulgaris
# Source text: This was a Phase I, single-center, randomized, double-blind, placebo-controlled study in male and female patients with stable psoriasis vulgaris aged >18 and <71 years. Sixteen patients were enrolled in 2 treatment groups. […] Patients attended a screening visit within 21 days prior to Day 1. Patients were then admitted to the CPU in the afternoon of Day −1 and remained resident in the CPU until the morning of Day 8. Patients attended a follow-up visit 7 to 10 days after the last treatment administration on Day 7.
# The ointment was applied by the CPU staff, using a spatula and finger cot.
# Physicians Global Assessment (PGA) scores were assessed at screening, Day 1, Day 7 and at follow-up. Digital photographs of the application sites were also taken on admission to the CPU, Day 7 and at follow-up.
substance,measurement,setting,value
"(9S, 10R, 12R)-10-(3′-mPEG2000-1′,3′-oxazolidine-2′,4′-dione)-2,3,9,10,11,12-hexahydro-9-methyl-1-oxo-9,12-epoxy-1H-diindolo[1,2,3-fg:3′,2′,1′-k,l]pyrrolo[3,4-i][1,6] benzodiazocine] [CT327]",Complete resolution of plaque(s),7-day dosing period,No patients showed complete resolution
same,"PGA Erythma 1: FAINT ERYTHEMA, patients (%)","Plaque 1, DAY 1, N = 12",(16.7%)
same,"PGA Erythma 2: LIGHT RED COLOURATION, patients (%)","Plaque 1, DAY 1, N = 12",(66.7%)
same,"PGA Erythma 3: MODERATE RED COLOURATION, patients (%)","Plaque 1, DAY 1, N = 12",(8.3%)
same,"PGA Erythma 4: BRIGHT RED COLOURATION, patients (%)","Plaque 1, DAY 1, N = 12",(8.3%)
same,"PGA Induration 1: MINIMAL PLAQUE ELEVATION, =0.25 MM, patients (%)","Plaque 1, DAY 1, N = 12",(33.3%)
same,"PGA Induration 2: MILD PLAQUE ELEVATION, =0.5 MM, patients (%)","Plaque 1, DAY 1, N = 12",(41.7%)
same,"PGA Induration 3: MODERATE PLAQUE ELEVATION, =0.75 MM, patients (%)","Plaque 1, DAY 1, N = 12",(25.0%)
same,"PGA Scaling 2: MILD, FINE SCALE DOMINATES, patients (%)","Plaque 1, DAY 1, N = 12",(58.3%)
same,"PGA Scaling 3: MODERATE, COARSE SCALE PREDOMINATES, patients (%)","Plaque 1, DAY 1, N = 12",(33.3%)
same,"PGA Scaling 4: MARKED, THICK, NON-TENACIOUS SCALE DOMINATES, patients (%)","Plaque 1, DAY 1, N = 12",(8.3%)
same,"Physician Static Global Score 1: MINIMAL, patients (%)","Plaque 1, DAY 1, N = 12",(8.3%)
same,"Physician Static Global Score 2: MILD, patients (%)","Plaque 1, DAY 1, N = 12",(58.3%)
same,"Physician Static Global Score 3: MODERATE, patients (%)","Plaque 1, DAY 1, N = 12",(33.3%)
same,"PGA Erythma 1: FAINT ERYTHEMA, patients (%)","Plaque 1, DAY 7, N = 12",(16.7%)
same,"PGA Erythma 2: LIGHT RED COLOURATION, patients (%)","Plaque 1, DAY 7, N = 12",(66.7%)
same,"PGA Erythma 3: MODERATE RED COLOURATION, patients (%)","Plaque 1, DAY 7, N = 12",(8.3%)
same,"PGA Erythma 4: BRIGHT RED COLOURATION, patients (%)","Plaque 1, DAY 7, N = 12",(8.3%)
same,"PGA Induration 1: MINIMAL PLAQUE ELEVATION, =0.25 MM, patients (%)","Plaque 1, DAY 7, N = 12",(66.7%)
same,"PGA Induration 2: MILD PLAQUE ELEVATION, =0.5 MM, patients (%)","Plaque 1, DAY 7, N = 12",(33.3%)
same,"PGA Scaling 0: NO EVIDENCE OF SCALING, patients (%)","Plaque 1, DAY 7, N = 12",(8.3%)
same,"PGA Scaling 1: MINIMAL, OCCASIONAL FINE SCALE OVER LESS THAN 5% OF THE LESION, patients (%)","Plaque 1, DAY 7, N = 12",(58.3%)
same,"PGA Scaling 2: MILD, FINE SCALE DOMINATES, patients (%)","Plaque 1, DAY 7, N = 12",(33.3%)
same,"Physician Static Global Score 1: MINIMAL, patients (%)","Plaque 1, DAY 7, N = 12",(41.7%)
same,"Physician Static Global Score 2: MILD, patients (%)","Plaque 1, DAY 7, N = 12",(50.0%)
same,"Physician Static Global Score 3: MODERATE, patients (%)","Plaque 1, DAY 7, N = 12",(8.3%)
same,"PGA Erythma 1: FAINT ERYTHEMA, patients (%)","Plaque 1, FOLLOW-UP, N = 12",(33.3%)
same,"PGA Erythma 2: LIGHT RED COLOURATION, patients (%)","Plaque 1, FOLLOW-UP, N = 12",(58.3%)
same,"PGA Erythma 4: BRIGHT RED COLOURATION, patients (%)","Plaque 1, FOLLOW-UP, N = 12",(8.3%)
same,"PGA Induration 1: MINIMAL PLAQUE ELEVATION, =0.25 MM, patients (%)","Plaque 1, FOLLOW-UP, N = 12",(33.3%)
same,"PGA Induration 2: MILD PLAQUE ELEVATION, =0.5 MM, patients (%)","Plaque 1, FOLLOW-UP, N = 12",(66.7%)
same,"PGA Scaling 1: MINIMAL, OCCASIONAL FINE SCALE OVER LESS THAN 5% OF THE LESION, patients (%)","Plaque 1, FOLLOW-UP, N = 12",(16.7%)
same,"PGA Scaling 2: MILD, FINE SCALE DOMINATES, patients (%)","Plaque 1, FOLLOW-UP, N = 12",(58.3%)
same,"PGA Scaling 3: MODERATE, COARSE SCALE PREDOMINATES, patients (%)","Plaque 1, FOLLOW-UP, N = 12",(25.0%)
same,"Physician Static Global Score 1: MINIMAL, patients (%)","Plaque 1, FOLLOW-UP, N = 12",(16.7%)
same,"Physician Static Global Score 2: MILD, patients (%)","Plaque 1, FOLLOW-UP, N = 12",(75.0%)
same,"Physician Static Global Score 3: MODERATE, patients (%)","Plaque 1, FOLLOW-UP, N = 12",(8.3%)
same,"PGA Erythma 1: FAINT ERYTHEMA, patients (%)","Plaque 1, SCREENING, N = 12",(8.3%)
same,"PGA Erythma 2: LIGHT RED COLOURATION, patients (%)","Plaque 1, SCREENING, N = 12",(41.7%)
same,"PGA Erythma 3: MODERATE RED COLOURATION, patients (%)","Plaque 1, SCREENING, N = 12",(41.7%)
same,"PGA Erythma 4: BRIGHT RED COLOURATION, patients (%)","Plaque 1, SCREENING, N = 12",(8.3%)
same,"PGA Induration 1: MINIMAL PLAQUE ELEVATION, =0.25 MM, patients (%)","Plaque 1, SCREENING, N = 12",(33.3%)
same,"PGA Induration 2: MILD PLAQUE ELEVATION, =0.5 MM, patients (%)","Plaque 1, SCREENING, N = 12",(50.0%)
same,"PGA Induration 3: MODERATE PLAQUE ELEVATION, =0.75 MM, patients (%)","Plaque 1, SCREENING, N = 12",(8.3%)
same,"PGA Induration 4: MARKED PLAQUE ELEVATION, =1 MM, patients (%)","Plaque 1, SCREENING, N = 12",(8.3%)
same,"PGA Scaling 1: MINIMAL, OCCASIONAL FINE SCALE OVER LESS THAN 5% OF THE LESION, patients (%)","Plaque 1, SCREENING, N = 12",(16.7%)
same,"PGA Scaling 2: MILD, FINE SCALE DOMINATES, patients (%)","Plaque 1, SCREENING, N = 12",(33.3%)
same,"PGA Scaling 3: MODERATE, COARSE SCALE PREDOMINATES, patients (%)","Plaque 1, SCREENING, N = 12",(41.7%)
same,"PGA Scaling 4: MARKED, THICK, NON-TENACIOUS SCALE DOMINATES, patients (%)","Plaque 1, SCREENING, N = 12",(8.3%)
same,"Physician Static Global Score 1: MINIMAL, patients (%)","Plaque 1, SCREENING, N = 12",(16.7%)
same,"Physician Static Global Score 2: MILD, patients (%)","Plaque 1, SCREENING, N = 12",(41.7%)
same,"Physician Static Global Score 3: MODERATE, patients (%)","Plaque 1, SCREENING, N = 12",(33.3%)
same,"Physician Static Global Score 4: MARKED, patients (%)","Plaque 1, SCREENING, N = 12",(8.3%)
same,"PGA Erythma 2: LIGHT RED COLOURATION, patients (%)","Plaque 2, DAY 1, N = 12",(33.3%)
same,"PGA Induration 1: MINIMAL PLAQUE ELEVATION, =0.25 MM, patients (%)","Plaque 2, DAY 1, N = 12",(8.3%)
same,"PGA Induration 2: MILD PLAQUE ELEVATION, =0.5 MM, patients (%)","Plaque 2, DAY 1, N = 12",(16.7%)
same,"PGA Induration 3: MODERATE PLAQUE ELEVATION, =0.75 MM, patients (%)","Plaque 2, DAY 1, N = 12",(8.3%)
same,"PGA Scaling 2: MILD, FINE SCALE DOMINATES, patients (%)","Plaque 2, DAY 1, N = 12",(16.7%)
